The values that follow come from patent US8980224B2, “Method of cardiac imaging” (GE Healthcare AS, priority 2004, dated 2015).

SMILES strings stand for the structures.

The nature of series [1]: 13C polarisation obtained by the DNP method, assessed with 13C-NMR. It counts as physicochemical. The following applies: 1.2 K, 3.35 T. As for the experimental part: A 20 mM solution was prepared by dissolving 5.0 mg of the radical of Example 1 in ^13CI-pyruvic acid (164 μl). The sample was mixed to homogeneity and an aliquot of the solution (41 mg) was placed in a sample cup and inserted in the DNP polariser.
The sample was polarised under DNP conditions at 1.2 K in a 3.35 T magnetic field under irradiation with microwave (93.950 GHz). After 2 hours the polarisation was stopped and the sample was dissolved using a dissolution device according to WO-A-02/37132 in an aqueous solution of sodium hydroxide and tris(hydroxymethyl)aminomethane (TRIS) to provide a neutral solution of hyperpolarised sodium ^13C1-pyruvate. The dissolved sample was rapidly analysed with ^13C-NMR to assess the polarisation and a 19.0% ^13C polarisation was obtained.
A 15 mM solution was prepared by dissolving the radical of Example 1 (209.1 mg) in a mixture of ^13C1-pyruvic acid (553 mg) and unlabelled pyruvic acid (10.505 g). The sample was mixed to homogeneity and an aliquot of the solution (2.015 g) was placed in a sample cup and inserted in the DNP polariser.
The sample was polarised under DNP conditions at 1.2 K in a 3.35 T magnetic field under irradiation with microwave (93.950 GHz). […] The filtered solution was rapidly analysed with ^13C-NMR to assess the polarisation, 16.5% ^13C polarisation was obtained. The residual radical concentration was subsequently analysed with a UV spectrophotometer meter at 469 nm and was determined to be below the detection limit of 0.1 μM.
A 20 mM solution was prepared by dissolving Tris(8-carboxy-2,2,6,6-tetra(hydroxyethoxy)methyl-benzo[1,2-d:4,5-d′]-bis-(1,3)-dithiole-4-yl)methyl sodium salt in ^13C1-pyruvic acid (83.1 mg). […] The DNP enhancement was calculated from a measurement of the thermal equilibrium ^13C-NMR signal and the enhanced NMR signal. […]

Series [2] is described as follows: T1 relaxation of 13C-pyruvate in human full blood. To be noted: human full blood at 37° C. The class given is physicochemical. An excerpt:
The amount of alanine, bicarbonate and lactate is dependent on the metabolic status of the myocardial tissue under investigation.

Series [3] deals with myocardial tissue. The series can be described thus: Cardiac 13C-MR imaging in the pig before and after occlusion of the circumflexa. The class given is in vivo. To be noted: 0.22 mmol/kg i.v., imaging 30 s after start of injection. As to the method: The pig (25 kg) was anaesthetised using a cocktail containing isotonic NaCl (26 vol %), Ketalar (50 mg/ml) (Pfizer AB) (42 vol %), Norcuron (10 mg+5 ml sterile water) (Organon) (21 vol %) and Midazolam (5 mg/ml) (Pharma Hameln) (11% vol) administered using an infusion pump at a rate of 0.6 ml/min.
After the first injection with ^13C-pyruvate the pig was removed from the MR scanner. Under X-ray guidance, a balloon catheter was inserted into the arteria coronaria sinistra and the circumflexa was blocked for a 15 minute period. During the whole operation ECG and blood pressure were measured. 90 Minutes after the end of the ischemic period, the pig was imaged again and ^13C-images were acquired from (about) the same location as were the control measurement was carried out.
The pig was positioned in a pig MR coil (Rapid Biomedical, Germany) and imaged using a standard clinical cardiac proton MR imaging sequence library to get anatomical information and to get the short axis view orientation of the myocardium (see proton reference image in the figures to see an example of short axis view).
Based on the proton frequency found by the MR system the MR frequency for ^13C1-alanine was calculated according to the following equation: Frequency ^13C1-alanine=0.25144×[(system frequency proton×1.00021)−0.000397708]
The frequency calculated positioned the MR signal arising from ^13C1-alanine on resonance with ^13C1-lactate on the left and ^13C1-pyruvate and ^13C1-bicarbonate resonating on the right of ^13C1-alanine. An unlocalised MR spectroscopy sequence was run to ensure that the ^13C-MR coil and the system MR frequency had been set up correctly. The ^13C-image location was positioned to cover the myocardium (short axis view) (slice thickness 20 mm, in plane pixel size 7.5×7.5 mm^2). In the reconstruction phase, the image data was zero-filled to result in 3.75×3.75×20 mm^3 resolution. 16 ml of ^13C1-pyruvate (327 mM) was injected (0.22 mmol/kg) during a period of 12 s (1.3 ml/s) i.v. into the front leg and 30 s after the start of the injection (i.e. 18 s after finishing the injection), the chemical shift ^13C-MR sequence was started.
In the reconstruction phase, the matrix was zero-filled to 32×32, a mathematical operation that helps to improve the spatial resolution. The dataset was analysed on the MRI scanner with software provided by the manufacturer. The results are metabolic images for ^13C-pyruvate, ^13C-alanine, ^13C-lactate and ^13C-bicarbonate.

Setting [4] is: 90 minutes after 15 minute occlusion of the circumflexa.
The mark [5] stands for this setting: before vs 90 minutes after 15 minute occlusion.

Consider `CC(=O)C(=O)O` [^13C-pyruvate, sodium ^13C1-pyruvate], for which the 13C polarisation in series [1] (Example 2: 20 mM radical of Example 1 in 13C1-pyruvic acid, 93.950 GHz, 2 hours, dissolved in NaOH/TRIS, liquid 13C-NMR) was 19.0%. The 13C polarisation in series [1] (Example 3: 15 mM radical of Example 1, 4 hours, dissolved in NaOH/TRIS, 0.5 M pyruvate, radical removed on C18 column, filtered solution) came out at 16.5%. Further, the T1 relaxation entry in series [2] was “about 42 s”. Moreover, in series [3] (setting [4]), the “13C-bicarbonate signal in myocardial tissue at risk (compared to the control)” value is recorded as “strongly reduced” and the “13C-lactate signal in myocardial tissue at risk” value is given as “positive contrast”. Also, in series [3] (setting [5]), the “13C-alanine image before and after the ischemic period” value is on record as “No difference”; the “13C-pyruvate image before and after the ischemic period” value is listed as “No difference”.
Regarding `CC(=O)[13C](=O)O` [^13C1-pyruvic acid], the 13C polarisation in series [1] (Example 4: 20 mM tris(8-carboxy-2,2,6,6-tetra(hydroxyethoxy)methyl-benzo-bis-dithiole-4-yl)methyl sodium salt, calculated from thermal equilibrium and enhanced NMR signal) is given as 16%.
